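Compound exposure: 48 hours, 5 concentrations, 96-well plates. Here, GI50 denotes the concentration required for 50% inhibition of growth.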 Active and inactive are the calls of the source. No stated cut-off is given here; in the data, active = GI50 up to about 1.1 µM and inactive = higher.
Tests used:
Assay in all cases: NCI-60 cell line screen, 48 h
SF-268 = test system: SF-268
IGROV-1 = test system: IGROV-1
ACHN = test system: ACHN
K562 = test system: K562
HL-60 = test system: HL-60
HOP-92 = test system: HOP-92
SK-OV-3 = test system: SK-OV-3
OVCAR-5 = test system: OVCAR-5
SK-MEL-2 = test system: SK-MEL-2
PC-3 = test system: PC-3
SK-MEL-5 = test system: SK-MEL-5
OVCAR-4 = test system: OVCAR-4
DU-145 = test system: DU-145
HCT-15 = test system: HCT-15
SNB-19 = test system: SNB-19
M14 = test system: M14
COLO 205 = test system: COLO 205
U-251 = test system: U-251
MDA-MB-435 = test system: MDA-MB-435
NCI-H23 = test system: NCI-H23
KM12 = test system: KM12
NCI/ADR-RES = test system: NCI/ADR-RES
HCC 2998 = test system: HCC 2998
NCI-H460 = test system: NCI-H460
SF-295 = test system: SF-295
SNB-75 = test system: SNB-75
HOP-62 = test system: HOP-62
OVCAR-3 = test system: OVCAR-3
TK-10 = test system: TK-10
NCI-H226 = test system: NCI-H226
UACC-62 = test system: UACC-62
Malme-3M = test system: Malme-3M
CAKI-1 = test system: CAKI-1
T47D = test system: T47D
SW-620 = test system: SW-620
RXF 393 = test system: RXF 393
786-0 = test system: 786-0
EKVX = test system: EKVX
SR = test system: SR
MDA-MB-231 = test system: MDA-MB-231
SN12C = test system: SN12C
LOX IMVI = test system: LOX IMVI
Hs-578T = test system: Hs-578T
SF-539 = test system: SF-539
SK-MEL-28 = test system: SK-MEL-28
UACC-257 = test system: UACC-257
A549 = test system: A549
HCT-116 = test system: HCT-116
MOLT-4 = test system: MOLT-4
UO-31 = test system: UO-31
RPMI-8226 = test system: RPMI-8226
CCRF-CEM = test system: CCRF-CEM
HT-29 = test system: HT-29
MCF7 = test system: MCF7
OVCAR-8 = test system: OVCAR-8
MDA-N = test system: MDA-N
NCI-H522 = test system: NCI-H522

CC1(C)CC(C#Cc2ccccc2)CC(C)(C)N1O
GI50 (SF-268): 20.7 µM (inactive) | GI50 (IGROV-1): 29.9 µM (inactive) | GI50 (ACHN): 25.8 µM (inactive) | GI50 (K562): 22.8 µM (inactive) | GI50 (HL-60): 14.8 µM (inactive) | GI50 (HOP-92): 15.2 µM (inactive) | GI50 (SK-OV-3): 27.1 µM (inactive) | GI50 (OVCAR-5): 22.1 µM (inactive) | GI50 (SK-MEL-2): 20.7 µM (inactive) | GI50 (PC-3): 11.6 µM (inactive) | GI50 (SK-MEL-5): 16.1 µM (inactive) | GI50 (OVCAR-4): 43.4 µM (inactive) | GI50 (DU-145): 16.1 µM (inactive) | GI50 (HCT-15): 14.9 µM | GI50 (SNB-19): 30.5 µM (inactive) | GI50 (M14): 19.1 µM (inactive) | GI50 (COLO 205): 20.6 µM (inactive) | GI50 (U-251): 23.9 µM (inactive) | GI50 (MDA-MB-435): 21.6 µM (inactive) | GI50 (NCI-H23): 15.7 µM (inactive) | GI50 (KM12): 17.3 µM (inactive) | GI50 (NCI/ADR-RES): 23.9 µM (inactive) | GI50 (HCC 2998): 16.3 µM (inactive) | GI50 (NCI-H460): 18.3 µM (inactive) | GI50 (SF-295): 15.6 µM (inactive) | GI50 (SNB-75): 16.9 µM (inactive) | GI50 (HOP-62): 16.4 µM (inactive) | GI50 (OVCAR-3): 15.9 µM (inactive) | GI50 (TK-10): 20.4 µM (inactive) | GI50 (NCI-H226): 20.9 µM (inactive) | GI50 (UACC-62): 17.2 µM (inactive) | GI50 (Malme-3M): 16.8 µM (inactive) | GI50 (CAKI-1): 20.6 µM (inactive) | GI50 (T47D): 16 µM (inactive) | GI50 (SW-620): 19.6 µM (inactive) | GI50 (RXF 393): 19.5 µM (inactive) | GI50 (786-0): 22.2 µM (inactive) | GI50 (EKVX): 23.6 µM (inactive) | GI50 (SR): 52.7 µM (inactive) | GI50 (MDA-MB-231): 15.2 µM (inactive) | GI50 (SN12C): 15.1 µM (inactive) | GI50 (LOX IMVI): 15.5 µM (inactive) | GI50 (Hs-578T): 19 µM (inactive) | GI50 (SF-539): 20.6 µM (inactive) | GI50 (SK-MEL-28): 16.6 µM (inactive) | GI50 (UACC-257): 16.6 µM (inactive) | GI50 (A549): 22.5 µM (inactive) | GI50 (HCT-116): 20 µM (inactive) | GI50 (MOLT-4): 46 µM (inactive) | GI50 (UO-31): 12.2 µM (inactive) | GI50 (RPMI-8226): 5.18 µM (inactive) | GI50 (CCRF-CEM): 39.8 µM (inactive) | GI50 (HT-29): 14.2 µM (inactive) | GI50 (MCF7): 16.5 µM (inactive) | GI50 (OVCAR-8): 20.7 µM (inactive) | GI50 (MDA-N): 15.8 µM (inactive)

CSCCC(NC(=O)OCc1ccccc1)NC(=O)OCc1ccccc1
GI50 (IGROV-1): > 100 µM (inactive) | GI50 (ACHN): > 100 µM (inactive) | GI50 (K562): > 100 µM (inactive) | GI50 (HL-60): > 10 µM (inactive) | GI50 (HOP-92): > 100 µM (inactive) | GI50 (SK-OV-3): > 100 µM (inactive) | GI50 (OVCAR-5): > 100 µM (inactive) | GI50 (SK-MEL-2): > 100 µM (inactive) | GI50 (PC-3): > 100 µM (inactive) | GI50 (SK-MEL-5): > 100 µM (inactive) | GI50 (OVCAR-4): > 100 µM (inactive) | GI50 (DU-145): > 100 µM (inactive) | GI50 (HCT-15): > 100 µM | GI50 (SNB-19): > 100 µM (inactive) | GI50 (M14): > 100 µM (inactive) | GI50 (COLO 205): > 100 µM (inactive) | GI50 (U-251): > 100 µM (inactive) | GI50 (MDA-MB-435): > 100 µM (inactive) | GI50 (NCI-H23): > 100 µM (inactive) | GI50 (NCI/ADR-RES): > 100 µM (inactive) | GI50 (HCC 2998): > 100 µM (inactive) | GI50 (NCI-H460): > 100 µM (inactive) | GI50 (SF-295): > 100 µM (inactive) | GI50 (SNB-75): > 100 µM (inactive) | GI50 (HOP-62): > 100 µM (inactive) | GI50 (OVCAR-3): > 100 µM (inactive) | GI50 (TK-10): > 100 µM (inactive) | GI50 (NCI-H226): > 100 µM (inactive) | GI50 (CAKI-1): > 100 µM (inactive) | GI50 (T47D): 59.8 µM (inactive) | GI50 (SW-620): > 100 µM (inactive) | GI50 (SR): > 100 µM (inactive) | GI50 (MDA-MB-231): > 100 µM (inactive) | GI50 (SN12C): > 100 µM (inactive) | GI50 (LOX IMVI): > 100 µM (inactive) | GI50 (Hs-578T): > 100 µM (inactive) | GI50 (SK-MEL-28): > 100 µM (inactive) | GI50 (UACC-257): > 100 µM (inactive) | GI50 (A549): > 100 µM (inactive) | GI50 (HCT-116): > 100 µM (inactive) | GI50 (MOLT-4): > 100 µM (inactive) | GI50 (UO-31): > 100 µM (inactive) | GI50 (NCI-H522): > 100 µM (inactive) | GI50 (RPMI-8226): > 100 µM (inactive) | GI50 (CCRF-CEM): > 10 µM (inactive) | GI50 (HT-29): > 100 µM (inactive) | GI50 (OVCAR-8): > 100 µM (inactive) | GI50 (MDA-N): > 100 µM (inactive)

Clc1ccc(OCc2nnc3sc(SSc4nn5c(COc6ccc(Cl)cc6)nnc5s4)nn23)cc1
GI50 (SF-268): > 100 µM (inactive) | GI50 (IGROV-1): > 100 µM (inactive) | GI50 (ACHN): > 100 µM (inactive) | GI50 (K562): 74.3 µM (inactive) | GI50 (HL-60): > 100 µM (inactive) | GI50 (SK-OV-3): > 100 µM (inactive) | GI50 (OVCAR-5): > 100 µM (inactive) | GI50 (SK-MEL-2): > 100 µM (inactive) | GI50 (SK-MEL-5): 60.8 µM (inactive) | GI50 (DU-145): > 100 µM (inactive) | GI50 (SNB-19): > 100 µM (inactive) | GI50 (M14): > 100 µM (inactive) | GI50 (COLO 205): > 100 µM (inactive) | GI50 (U-251): > 100 µM (inactive) | GI50 (MDA-MB-435): 92.9 µM (inactive) | GI50 (NCI-H23): > 100 µM (inactive) | GI50 (KM12): > 100 µM (inactive) | GI50 (NCI/ADR-RES): > 100 µM (inactive) | GI50 (NCI-H460): > 100 µM (inactive) | GI50 (SF-295): > 100 µM (inactive) | GI50 (SNB-75): > 100 µM (inactive) | GI50 (HOP-62): > 100 µM (inactive) | GI50 (NCI-H226): > 100 µM (inactive) | GI50 (Malme-3M): > 100 µM (inactive) | GI50 (T47D): 49.5 µM (inactive) | GI50 (SW-620): > 100 µM (inactive) | GI50 (786-0): > 100 µM (inactive) | GI50 (EKVX): 66.5 µM (inactive) | GI50 (MDA-MB-231): > 100 µM (inactive) | GI50 (SN12C): > 100 µM (inactive) | GI50 (LOX IMVI): > 100 µM (inactive) | GI50 (Hs-578T): > 100 µM (inactive) | GI50 (SF-539): > 100 µM (inactive) | GI50 (SK-MEL-28): > 100 µM (inactive) | GI50 (UACC-257): > 100 µM (inactive) | GI50 (A549): > 100 µM (inactive) | GI50 (HCT-116): > 100 µM (inactive) | GI50 (UO-31): 52 µM (inactive) | GI50 (NCI-H522): 63.1 µM (inactive) | GI50 (RPMI-8226): 44.8 µM (inactive) | GI50 (HT-29): > 100 µM (inactive) | GI50 (OVCAR-8): > 100 µM (inactive)
